Reference: patent publication US10674724B2, “Method of activating immune response in plants” (priority 2012, dated 2020)

Legend:
NPR1 [1] = target: T1, NPR1 (Arabidopsis thaliana, UniProt P93002); type: binding; conditions: equilibrium dialysis
T1 construct: made in house; host or cells: E. coli
Procedure: Given the dissociation reaction:
The data was analyzed by non-linear regression using GraphPad PRISM 4 and fitted to a one-site-binding rectangular hyperbola.

Δ513 = target: T2, Δ513 (Arabidopsis thaliana, UniProt P93002); assay: Sephacryl S100 gel filtration of Strep-tagged Δ513; type: biochemical; conditions: 1 mM SA
T2 construct: made in house; host or cells: E. coli
T2 sequence (P93002 513-593): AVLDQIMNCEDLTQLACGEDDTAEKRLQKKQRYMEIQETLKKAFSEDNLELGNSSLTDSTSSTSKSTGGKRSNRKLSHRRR
Procedure: (§1) Strep-tagged purified proteins in a final volume of 2 ml were subjected to gel filtration analysis on the Sephacryl S100 HR or Sephacryl S300 HR packed in 50 cm long HR 16 columns (GE Health) and equilibrated with S300 chromatography buffer (50 mM HEPES, pH 7.4, 250 mM NaCl. Elutions, in 0.5 ml fractions, were performed in the same buffer at a flow rate of 0.8 ml/min. Where indicated, proteins were incubated with 1 mM SA, 1 mM catechol, 1 mM 4-hydroxy benzoic acid, or 1 mM methyl-salicylate at room temperature for 30 min prior to chromatography as described above with the exception that the chromatography buffer was supplemented with 1 mM SA, 1 mM catechol, 1 mM 4-hydroxy benzoic acid, or 1 mM methyl-salicylate, respectively. In the case of the EDTA treatment, NPR1 was stripped of its metal by a 50 mM EDTA treatment of 30 min, followed by an incubation of 30 min with 1 mM SA prior to gel filtration. In this case, the chromatography buffer was supplemented with 1 mM SA.

[2] = system: transcription activity of Δ513; assay: in vivo plant transcription assay, Δ513:DB co-expressed with BTB/POZ; type: cell-based, Arabidopsis thaliana; conditions: 1 mM salicylic acid in medium
Procedure: Arabidopsis thaliana (Columbia) leaves were harvested from four-week-old plants grown at 21° C. (day) and 18° C. (night) with a ten-hour photoperiod and transferred to Petri dishes containing MS salts and micronutrients supplemented with B5 vitamins, 1% sucrose and 0.8% agar at a pH of 5.8. […] Coating of the gold particles and general procedures and preparation of the biolistic experiments were as per the manufacturer's instructions (Bio-Rad). After bombardment, leaves were kept in the conditions described above for a period of 24 hours before assaying. Enzyme assays were performed using the Dual-Luciferase Reporter Assay® system (Promega) following the manufacturer's instructions. Luminescence was measured on a Berthold Lumat LB9507 Luminometer (Bad Wildbad, Germany) and the data obtained represented the value of the reporter gene divided by the value of the internal standard and expressed as Relative Luciferase Units. To increase signal-to-noise ratio in some experiments, qPCR was performed to measure the amount of Firefly and Renilla Luciferases mRNA. The data was reported as Relative Expression and represented the value of the reporter mRNA divided by the value of the internal standard mRNA. The ratio obtained for Ga14 DB was assigned an arbitrary value of 1. […]
It was then determined whether or not the BTB/POZ could modulate the transcriptional properties of Δ513 (FIG. 5F). […]

NPR1 C521S/C529S = target: T3, NPR1 C521S/C529S (Arabidopsis thaliana, UniProt P93002, C521S/C529S); assay: Sephacryl S300 gel filtration of NPR1 Cys-to-Ser mutant; type: biochemical; conditions: 1 mM SA
T3 construct: both full-length NPR1 and Δ513 harboring C-to-S mutations at Cys^521/529; made in house; host or cells: E. coli
Procedure: as §1

NPR1 [3] = target: T1, NPR1; assay: Sephacryl S300 gel filtration of Strep-tagged NPR1; type: biochemical
Procedure: as §1

T1 sequence (P93002 whole entry): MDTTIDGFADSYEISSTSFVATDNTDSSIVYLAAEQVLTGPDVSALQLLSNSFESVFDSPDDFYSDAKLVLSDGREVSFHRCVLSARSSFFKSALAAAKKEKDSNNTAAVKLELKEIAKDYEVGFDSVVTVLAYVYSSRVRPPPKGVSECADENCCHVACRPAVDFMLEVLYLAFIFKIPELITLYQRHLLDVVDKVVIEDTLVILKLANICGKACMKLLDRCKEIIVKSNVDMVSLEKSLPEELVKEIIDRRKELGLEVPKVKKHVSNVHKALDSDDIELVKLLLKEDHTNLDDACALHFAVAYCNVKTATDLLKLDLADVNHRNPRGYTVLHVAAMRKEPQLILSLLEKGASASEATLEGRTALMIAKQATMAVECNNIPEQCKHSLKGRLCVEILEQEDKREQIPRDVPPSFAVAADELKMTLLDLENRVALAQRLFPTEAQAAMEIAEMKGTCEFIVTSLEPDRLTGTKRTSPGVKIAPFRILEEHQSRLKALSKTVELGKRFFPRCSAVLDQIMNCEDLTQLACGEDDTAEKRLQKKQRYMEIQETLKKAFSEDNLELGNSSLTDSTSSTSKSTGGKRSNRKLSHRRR
T3 sequence (P93002 whole entry C521S/C529S): as the sequence (P93002 whole entry) above, with C521S, C529S counted along it

O=C(O)c1ccccc1O [SA, Salicylic acid]
amount of SA bound to NPR1 above a no-protein experiment (NPR1 [1]): ~4 orders of magnitude | maximum binding (Bmax) (NPR1 [1]; saturation binding): 0.96±0.01 mol SA per mol NPR1 | stoichiometry of Δ513 after SA treatment (S100) (Δ513): consistent with that of a dimer | transcription activity of Δ513 co-expressed with BTB/POZ in SA-treated cells [2]: unaffected by the BTB/POZ | SA-induced NPR1 conformation change, Cys521/529 mutant (NPR1 C521S/C529S): abolished the NPR1 conformation change | conformation of NPR1 (S300 elution profile) (NPR1 [3]; 1 mM SA, catechol, 4-hydroxy benzoic acid or methyl-salicylate, 30 min, DTT concentration not given): redistributed to the included volume | SA-induced NPR1 conformation change after metal chelation (NPR1 [3]; 50 mM EDTA 30 min, then 1 mM SA 30 min): abolished the NPR1 conformation change
